According to ChEMBL document CHEMBL1201862, “PubChem BioAssay data set” (2004):
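Protocol summary: plate cells (96-well), add compound at 5 concentrations, incubate 48 h, interpolate endpoints linearly. GI50 marks 50% less growth.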 Activity calls are given as the source filed them. No stated cut-off is given here; in the data, active = GI50 up to about 1.1 µM and inactive = higher.

What was measured:
Assay in all cases: DTP human tumour cell line panel, 48 h
[1] = tested on: 786-0
[2] = tested on: CAKI-1
[3] = tested on: EKVX
[4] = tested on: HCT-15
[5] = tested on: IGROV-1
[6] = tested on: KM12
[7] = tested on: M14
[8] = tested on: NCI-H226
[9] = tested on: RPMI-8226
[10] = tested on: RXF 393
[11] = tested on: SF-295
[12] = tested on: SK-MEL-2
[13] = tested on: SK-MEL-5
[14] = tested on: SK-OV-3
[15] = tested on: SNB-75
[16] = tested on: SW-620
[17] = tested on: TK-10
[18] = tested on: UACC-257
[19] = tested on: DU-145
[20] = tested on: MDA-MB-231

Measured: GI50

CCC(C)(C)NS(=O)(=O)c1ccccc1
inactive: [1] > 100 µM | [2] > 100 µM | [3] > 100 µM | [5] > 100 µM | [6] > 100 µM | [7] > 100 µM | [8] > 10 µM | [9] > 100 µM | [10] > 100 µM | [11] > 100 µM | [12] > 100 µM | [13] > 100 µM | [14] > 100 µM | [15] > 100 µM | [16] > 100 µM | [17] > 100 µM | [18] > 100 µM
> 100 µM: [4]

CCCCc1ccc(Nc2nc(S)c3[nH]cnc3n2)cc1
37.5 µM: [4]
inactive: [1] 33.2 µM | [2] 34.5 µM | [19] 35.5 µM | [3] > 10 µM | [5] 18.7 µM | [6] 11.4 µM | [7] 24.2 µM | [20] 28.9 µM | [8] 16.3 µM | [9] 44.5 µM | [11] 25.1 µM | [12] 17 µM | [13] 12.5 µM | [14] > 10 µM | [16] 15.4 µM | [17] 20.6 µM | [18] 21.6 µM

CCOC(=O)c1ccc(-c2ccc(Cl)cc2)[nH]1
inactive: [1] > 10 µM | [19] > 10 µM | [3] 2.28 µM | [5] > 10 µM | [6] > 10 µM | [7] > 10 µM | [8] 8.47 µM | [11] > 10 µM | [12] > 10 µM | [13] > 10 µM | [14] > 10 µM | [15] > 10 µM | [17] > 10 µM | [18] > 10 µM
> 10 µM: [4]

COc1ccc(CN(Cc2ccc(OC)cc2)C(=O)CC2(O)C=CCC2)cc1 (stereo not drawn)
78.7 µM: [4]
inactive: [1] > 100 µM | [2] 46.7 µM | [19] > 100 µM | [3] 46.1 µM | [5] > 100 µM | [6] 45.9 µM | [7] > 100 µM | [20] > 100 µM | [8] > 100 µM | [9] 31.6 µM | [11] 56.9 µM | [12] 56.6 µM | [13] 32.9 µM | [14] > 100 µM | [15] 81.8 µM | [16] > 100 µM | [17] > 100 µM | [18] 43.4 µM

Cc1ccccc1S(=O)(=O)Nn1cnc2ccc(S(=O)(=O)Nc3ccc(Cl)cc3)cc2c1=O
inactive: [1] > 100 µM | [2] > 100 µM | [19] > 100 µM | [3] 35.2 µM | [5] 7.59 µM | [6] 12.4 µM | [7] 65.9 µM | [20] > 100 µM | [8] > 100 µM | [9] 51.8 µM | [11] 48.4 µM | [12] 16.6 µM | [14] > 100 µM | [15] > 100 µM | [16] > 100 µM | [17] > 100 µM | [18] > 100 µM
> 100 µM: [4]

CSC1=N[C@H](c2ccccc2)CS1
inactive: [1] > 100 µM | [2] > 100 µM | [19] > 100 µM | [3] > 100 µM | [5] > 100 µM | [6] > 100 µM | [7] > 100 µM | [9] > 100 µM | [11] > 100 µM | [12] > 100 µM | [13] > 100 µM | [15] 2.8 µM | [16] > 100 µM | [17] > 100 µM | [18] > 100 µM
> 100 µM: [4]

CC(C)CCC[C@@H](C)C1CCC2[C@@H]3CC=C4C[C@@H](C(=O)NCCN(C)C)CC[C@]4(C)C3CC[C@@]21C (stereo partly drawn)
inactive: [1] 17.3 µM | [2] 22.3 µM | [3] 47.5 µM | [5] 31.1 µM | [6] 14.9 µM | [7] 16.3 µM | [8] 19.9 µM | [9] 19.8 µM | [10] > 100 µM | [11] 44.4 µM | [12] 11.5 µM | [13] > 10 µM | [14] > 100 µM | [15] 20.4 µM | [16] 30 µM | [17] 23.7 µM | [18] 22.4 µM
19 µM: [4]

COC(=O)C1(C(=O)OC)N=C(C)OC1C(C)C (stereo not drawn)
> 100 µM: [4]
inactive: [1] > 100 µM | [2] > 100 µM | [19] > 100 µM | [3] > 100 µM | [6] > 100 µM | [7] > 100 µM | [8] > 100 µM | [9] > 100 µM | [10] > 100 µM | [11] > 100 µM | [12] > 100 µM | [13] > 100 µM | [14] > 100 µM | [15] > 100 µM | [16] > 100 µM | [17] > 100 µM | [18] > 100 µM

Cc1ccc(C(=O)Nc2ccc(S(=O)(=O)O)c3cc(S(=O)(=O)O)cc(S(=O)(=O)O)c23)cc1NC(=O)c1cccc(N)c1
> 100 µM: [4]
inactive: [1] > 100 µM | [2] > 100 µM | [3] > 100 µM | [5] > 100 µM | [6] > 100 µM | [7] > 100 µM | [20] > 100 µM | [8] > 100 µM | [10] > 100 µM | [11] > 100 µM | [12] 73.8 µM | [13] > 100 µM | [14] > 100 µM | [15] > 100 µM | [16] > 100 µM | [17] > 100 µM | [18] > 100 µM

CCCCNC(=S)Nc1nc(C(=O)NNC(=O)c2ccccc2)cs1
inactive: [1] 16.7 µM | [2] 20.9 µM | [19] 19.6 µM | [3] 12.8 µM | [5] 13.8 µM | [6] 15.2 µM | [7] 14.9 µM | [20] 12.5 µM | [8] 21.3 µM | [9] 26.1 µM | [11] 15.2 µM | [12] 19.6 µM | [13] 10.8 µM | [14] 17.5 µM | [15] 32.6 µM | [16] 14 µM | [17] 19.6 µM | [18] 17.9 µM
6 µM: [4]

CC1=Nc2c(ccc3c2C(=O)c2ccccc2C3=O)NC(c2cccc3c2CCC3)C1 (stereo not drawn)
inactive: [1] > 100 µM | [2] 6.27 µM | [3] > 100 µM | [5] 10.3 µM | [6] > 31.9 µM | [7] > 92 µM | [8] > 66.2 µM | [9] > 100 µM | [10] > 100 µM | [11] > 100 µM | [12] > 80.9 µM | [13] > 100 µM | [14] > 31 µM | [15] > 100 µM | [16] > 100 µM | [17] > 100 µM | [18] > 100 µM
18.7 µM: [4]

CCOC(=O)c1c(-c2ccccc2)nc2ccccc2c1O
inactive: [1] > 100 µM | [2] > 100 µM | [19] > 100 µM | [3] > 100 µM | [5] > 100 µM | [6] > 100 µM | [7] > 100 µM | [9] > 100 µM | [10] > 100 µM | [11] > 100 µM | [13] > 100 µM | [14] > 100 µM | [15] > 100 µM | [16] > 100 µM | [17] > 100 µM | [18] > 100 µM
> 100 µM: [4]

CCCC(OCC)(OCC)OCC
> 100 µM: [4]
inactive: [1] > 100 µM | [2] > 100 µM | [3] > 100 µM | [5] > 100 µM | [6] > 100 µM | [7] > 100 µM | [8] > 100 µM | [9] > 100 µM | [10] > 100 µM | [11] > 100 µM | [12] > 100 µM | [13] > 100 µM | [14] > 100 µM | [15] > 100 µM | [17] > 100 µM | [18] > 100 µM

CCSC(SCC)=C1C(=O)N(c2ccccc2)N=C1C
12.3 µM: [4]
inactive: [1] 13.1 µM | [2] 3.8 µM | [3] 13.7 µM | [5] 17.4 µM | [6] 19.3 µM | [7] 13.6 µM | [8] 15.7 µM | [9] 7.67 µM | [10] 1.95 µM | [11] 23.7 µM | [12] 15.8 µM | [13] 18.3 µM | [14] 17.9 µM | [15] 20.6 µM | [16] 7.66 µM | [17] 10.1 µM | [18] 4.06 µM

C[C@]12C=CC(=O)C=C1CC[C@H]1[C@@H]3C[C@@H](O)[C@](O)(C(=O)CO)[C@@]3(C)C[C@H](O)[C@@]12F [TRIAMCINOLONE]
inactive: [1] > 100 µM | [2] > 100 µM | [3] > 100 µM | [5] > 100 µM | [6] > 100 µM | [7] > 100 µM | [8] > 100 µM | [9] 11 µM | [10] > 100 µM | [11] > 100 µM | [12] > 100 µM | [13] > 100 µM | [14] > 100 µM | [15] > 100 µM | [16] > 100 µM | [17] > 100 µM | [18] > 100 µM
> 100 µM: [4]

O=C(Nc1nc2ccccc2n1Cc1ccc(Cl)cc1)NC12CC3CC(CC(C3)C1)C2
inactive: [1] 20.5 µM | [2] 34.7 µM | [3] 32.7 µM | [5] 41 µM | [6] 53.8 µM | [7] 25 µM | [8] 24 µM | [9] 48.9 µM | [10] 20.5 µM | [11] 10.9 µM | [12] 26.9 µM | [13] 33.3 µM | [14] 16.2 µM | [15] 7.74 µM | [16] 65.8 µM | [17] 32.5 µM | [18] 28.2 µM
71.6 µM: [4]
